Experimental data published in patent US20240100146A1 (priority 2022, published 2024).

Tested on: MHV1
Set-up: species or system A/J mice
Conditions: mouse, in vivo

CC(=O)N[C@H]1[C@H]([C@H](O)[C@H](O)CO)OC(C(=O)O)=C[C@@H]1N=C(N)N [zanamivir]
% protection (survival) against lethal MHV1 challenge: 0%
